Results taken from patent US20240418723A1, “SEQUENTIAL TREATMENTS AND BIOMARKERS TO REVERSE RESISTANCE TO KINASE INHIBITORS” (Queen Mary University of London, priority 2021, published 2024).

Experiments:
P31/Fuj cells = test: Subcellular (cytosolic and nuclear/organelle) proteomics of LSD1i-treated P31/Fuj cells; assay type: cell-based
Procedure: Isolation of nuclear/organelle and cytosolic fractions for proteomic analysis was carried out as described below.
The isolation of cytosolic and nuclear/organelle proteins was performed as follows. Cells (10×10^6 cells per replicate) were resuspended in 1 mL hypotonic lysis buffer (containing 10 mM Tris-HCl pH 8.0, 1 mM KCl, 1.5 mM MgCl2, 1 mM DTT, 1 mM Na3VO4 and 1 mM NaF) and incubated at 4° C. for 30 minutes on a rotator. Nuclei/organelles were then pelleted (10,000×g, 10 min, 4° C.), after which the supernatant (cytosolic fraction) was transferred to fresh tubes. The nuclear/organelle fraction was further processed for proteomic analysis by adding 8M urea buffer as indicated above.
Proteins in the supernatant were isolated by methanol/chloroform precipitation as follows. Methanol was added to the protein solution (at 4×initial volume), followed by chloroform (1×initial volume) and ddH2O (3×initial volume), vortexing after each addition. Samples were centrifuged for 2 min, 12,000×g, 4° C., and the top aqueous layer was removed. Additional methanol was added (4×initial volume) and samples vortexed. Samples were centrifuged for 3 min, 12,000×g, 4° C., and the supernatant removed. Protein pellets were dried briefly at RT, then resuspended in 8M urea buffer. Homogenisation, cysteine alkylation and tryptic digestion of the nuclear and cytosolic fractions were carried out as described above. Desalting was performed through C18 spin columns (Glygen Corporation, Cat. TT2C18) following the manufacturer's indications. Briefly, columns were equilibrated twice with 200 μL 70% ACN, and washed twice with 200 μL 1% ACN. Peptide samples were loaded onto the columns, then washed twice with 200 μL 1% ACN, with spinning. […] Columns were spun for 2 min at 1,500×g, 4° C. each time they were loaded.

primary AML cells = test: Ex-vivo sequential treatment of primary AML blasts co-cultured on MS-5 stromal feeder layer, Guava ViaCount, CDI; assay type: cell-based, human
Procedure: We then examined whether, besides cell lines, LSD1i could also sensitise primary AML to kinase inhibitor treatment. We obtained CDI values from 17 AML blasts samples (6 normal, 5 complex and 6 MLL karyotypes) treated for 5 days with LSD1i followed by 3 days with either MEKi, PKC/FLT3i or DMSO control (FIGS. 2, H and I). Primary AML cells were cultured and treated in the presence of a feeder layer of bone marrow stromal cells, which, under control conditions, kept cells viable and proliferating throughout the course of the experiment.
Umbilical cord bloods were purchased from Anthony Nolan. Mononuclear cells (MNCs) were isolated by Ficoll prior red blood cells (RBC) lysis buffer (BioLegend, catalog #420301). Cells were then stained with CD34 immunomagnetic positive selection kit (EasySep™ Human CD34 Positive Selection Kit II, StemCell technologies, catalog #17856, according to manufacturer instructions). Purity of CD34^+ cells isolated from MNCs was assessed by flow cytometry prior to long term storage in liquid nitrogen. For AML samples, patients gave informed consent for the storage and use of their blood cells for research purposes. Experiments were performed in accordance with the Local Research Ethics Committee, as previously described. Mononuclear cells from peripheral blood or bone marrow biopsies were isolated in the BCI tissue bank facility and stored in liquid nitrogen.
Cell vials were thawed in 37° C. water bath and contents transferred to 15 mL Falcon tubes containing 4 mL of pre-warmed FBS with 40 ng/mL DNase (Sigma Aldrich D4513-1VL). Suspension was centrifuged at 300×g for 8 minutes, then supernatant was removed and cells resuspended in MyeloCult H5100 medium (Stemcell Technologies #05150) containing 1% P/S and supplemented with human IL-3 (Peprotech #200-03), human G-CSF (Peprotech #300-23) and human TPO (#300-18), each to a final concentration of 20 ng/mL. […]

[1] = 0.5 μM LSD1i 5 days versus control (FIG. 21A)
[2] = 0.5 μM LSD1i 5 days versus control (FIG. 21B)
[3] = LSD1i, pathway analysis of proteomics data (FIG. 21 C, D)

With `O=C(O)c1ccc(CN2CCC(CN[C@@H]3C[C@H]3c3ccccc3)CC2)cc1` [GSK2879552] the “number of proteins decreasing in cytosolic fraction” value (P31/Fuj cells; [1]) was 379, the “number of proteins increased in cytosolic fraction” value (P31/Fuj cells; [1]) was 101 and the “number of proteins decreasing in nuclear/organelle fraction” value (P31/Fuj cells; [2]) was 334. The “number of proteins increased in nuclear/organelle fraction” value (P31/Fuj cells; [2]) was 293, the “expression of MAPK pathway enzymes including NRAS, KRAS, MEK1 and P90-S6K (RPS6KA1 isoform)” value (P31/Fuj cells; LSD1i 5 days (FIG. 7B, 22A)) was “increase” and the “expression of PI3K p110δ catalytic isoform, AKT2, and RAC1” value (P31/Fuj cells; LSD1i 5 days (FIG. 7B, 22A)) was “decrease”. The “proteins involved in the PI3K, insulin and c-MYC signaling pathways” value (P31/Fuj cells; [3]) was “decrease”, the “α and β-integrin signaling proteins” value (P31/Fuj cells; [3]) was “increase” and the “number of primary AML cases primed for MEKi treatment” value (primary AML cells; LSD1i 5 days then MEKi 3 days, of the 17 primary AML cases (FIG. 2H)) was 8. For the same compound, the “number of primary AML cases primed for PKC/FLT3i treatment” value (primary AML cells; LSD1i 5 days then PKC/FLT3i (midostaurin) 3 days, out of the 14 tested (FIG. 2I)) was 5 and the “proportion of AML cases in which LSD1i->MEKi sequential treatment may be particularly effective” value (primary AML cells; LSD1i->MEKi sequential treatment, primary AML) was “about 50%”.
